According to patent US6166045A, “Torasemide of modification III” (Roche Diagnostics GmbH, priority 1998, dated 2000):
Read-outs that look alike come from different tables or passages of the source.

Assays:
[1] = Storage stability of the crystal modification; assay type: physicochemical; settings: storage stable: tablet form, ambient conditions, less than 5% changing into another crystalline form over six months
Heat of solution = assay type: physicochemical; settings: in I-butanol at 20° C.
Procedure: Relevant data of the two most important crystal forms (modification I and III) of torasemide are summarized in Table 1. | Heat of solution (kJ mol^-1) in I-butanol at 20° C. 36.1

Diuretic effect = settings: in vivo
[2] = Serum concentration of torasemide in rats after oral administration; assay type: in vivo, Wistar rat; settings: male rats (FIG. 1); for Serum concentration compared with modification I: oral 3 mg per kilogram
Procedure: FIG. 1 is a plot of serum concentration levels in male rats of torasemide of modification I and modification III versus time after oral administration; and FIG. 2 is similar to FIG. 1, but reflects the serum concentrations in female rats. […] Therefore, both genders were tested to determine the concentration of torasemide in serum against the time after administration. The dose of torasemide was 3 mg per kilogram, administered orally. FIG. 1 is a graph illustrating the concentration in the serum of male rats of torasemide, as a result of administering modification I and modification III. FIG. 2 is a representation of the concentration of torasemide versus time after administration for the serum of female rats, treated the same as the male rats of FIG. 1.

[3] = Water content after storing in relative humidity of 92% at 25° C.; assay type: physicochemical; settings: 92% relative humidity, Mod. III depending on particle size
Procedure: Relevant data of the two most important crystal forms (modification I and III) of torasemide are summarized in Table 1. | Water content (%) after storing in relative 0.2 1.2 (depending | humidity of 92% at 25° C. on particle size

True density = assay type: physicochemical
Procedure: One aspect of the present invention involves pure torasemide of modification III. It is believed that pure torasemide of modification III was previously unknown to the art. Torasemide of modification III can be characterized by a melting point of 155 to 158° C. (thermomicroscopy) and a true density of 1.302±0.009 g cm^-3 (versus 1.363±0.001 g cm^3 for modification I). In a preferred embodiment, the torasemide of modification III is pure. This term "pure" means that the torasemide contains less than about 1% of modification I and/or II, and less in any event than amounts of modification I which adversely effect the stability of modification III.
True density (g cm^-3) ± 95% - c.i.

[4] = Heat of fusion / heat of transition (DSC); assay type: physicochemical; settings: for Heat of fusion ± 95% - C.B.: heating rate 5K min^-1
[5] = literature (Acta Cryst. 1978), cited from earlier work
[6] = prior art (U.S. Re 34,672 and 34,580); listed as modification I; cited from earlier work
[7] = test system: sodium-potassium-2 chloride transport mechanism in the ascending limb of the loop of Henle; settings: cited from earlier work
[8] = male versus female Wistar rats; P-450 oxidation products; cited from earlier work
[9] = in vivo; cited from earlier work

Cc1cccc(Nc2ccncc2S(=O)(=O)NC(=O)NC(C)C)c1 [Modification III]
Stability of the crystal modification [1]: storage stable | Heat of solution (Heat of solution; listed as Mod. III): 7.12 kcal/mol | Diuretic effect (Diuretic effect): effective diuretic | Serum concentration compared with modification I ([2]; 20 minutes after administration): more than twice the serum concentration as modification I | Serum concentration compared with modification I ([2]; 40 minutes after administration): almost twice the serum concentration as modification I | Appearance in the serum after oral administration ([2]; oral): rapid appearance | Water content after storing in relative humidity of 92% at 25° C. ([3]; listed as Mod. III): 1.2% | True density ± 95% - c.i. (True density; listed as Mod. III): 1.302 ± 0.009 g cm^-3 | True density ± 95% - c.i. (True density; listed as modification III): 1.302±0.009 g cm^-3 | Heat of transition ± 95% - C.B. ([4]; at about 159° C., the difference of the heats of fusion, ± 2.1 printed on next line): -19.6 kcal/mol | Heat of fusion ± 95% - C.B. ([4]; listed as Mod. III): 7.15 ± 0.22 kcal/mol

Cc1cccc(Nc2ccncc2S(=O)(=O)NC(=O)NC(C)C)c1 [Modification II]
True density ([5]; in g/cm3 (unit assumed)): 1.285

Cc1cccc(Nc2ccncc2S(=O)(=O)NC(=O)NC(C)C)c1 [Modification I]
Stability / rearrangement in tablets or on storage [6]: stable in tablets and did not rearrange again back into modification II | Heat of solution (Heat of solution): 8.63 kcal/mol | Water content after storing in relative humidity of 92% at 25° C. ([3]; listed as Mod. I): 0.2% | True density [5]: about 1.36 | True density ± 95% - c.i. (True density; listed as Mod. I): 1.363 ± 0.001 g cm^-3 | Heat of fusion ± 95% - C.B. [4]: 8.89 ± 0.454 kcal/mol

Cc1cccc(Nc2ccncc2S(=O)(=O)NC(=O)NC(C)C)c1 [Torasemide, 1-isopropyl-3-[(4-m-toluidino-3pyridyl)sulphonyl)urea]
Mechanism of action [7]: blocks the sodium-potassium-2 chloride transport mechanism in the ascending limb of the loop of Henle | Difference between male and female rats in excretion rate and metabolism [8]: significant differences | Diuresis profile compared with other standard loop diuretics [9]: less intense initial diuresis and a sustained duration of action
